The values below are quoted from earlier work in patent US11446320B1, “Pharmaceutical combination having potent antiviral activity against single-stranded RNA viruses” (priority 2021, dated 2022).

One data set concerns SARS-CoV-2. Conditions: mammalian cells, in vitro.

As to ivermectin, in the data set on yellow fever virus, the “inhibition of yellow fever virus” value was “inhibit”. Moreover, the “inhibition of dengue virus” value in the data set on dengue virus is listed as “inhibit”. The “replication of SARS-CoV-2” value with SARS-CoV-2 is “slow replication”.

As to `NC(=O)c1nc(F)c[nH]c1=O` [Favipiravir], in the data set on filoviruses, the effectiveness against filoviruses result is “effective”. In addition, the effectiveness against arenaviruses entry in the data set on arenaviruses is on record as “effective”. The effectiveness against bunyaviruses entry with bunyaviruses is reported as “effective”. Also, the “effectiveness against influenza viruses” value in the data set on influenza viruses is “effective”.

Consider `NC(=O)c1nc(F)cn([C@@H]2O[C@H](COP(=O)(O)OP(=O)(O)OP(=O)(O)O)[C@@H](O)[C@H]2O)c1=O` [favipiravir-RTP], for which the effectiveness against filoviruses entry with filoviruses is “effective”. Moreover, the effectiveness against arenaviruses entry in the data set on arenaviruses was “effective”. Moreover, in the data set on bunyaviruses, the effectiveness against bunyaviruses entry is listed as “effective”. Also, the “effectiveness against influenza viruses” value in the data set with influenza viruses was “effective”.
